Activity calls are given as the source filed them.
Experiments:
[1] = P. falciparum Dd2 growth inhibitors, dose response, SYBR Green, cherry-picked samples (AID 1159567); assay type: functional, cell-based
[2] = toxicity to human hepatoma HepG2 cells – cell-based, cherry-picked samples, cytotoxicity control, dose response (AID 1159577); assay type: functional
[3] = molecular target: G-protein coupled receptor 183 (Homo sapiens, UniProt P32249); assay: SAR confirmation of small molecule antagonists of the EBI2 receptor via a luminescent beta-arrestin assa.; assay type: functional
G-protein coupled receptor 183, sequence (P32249 whole entry): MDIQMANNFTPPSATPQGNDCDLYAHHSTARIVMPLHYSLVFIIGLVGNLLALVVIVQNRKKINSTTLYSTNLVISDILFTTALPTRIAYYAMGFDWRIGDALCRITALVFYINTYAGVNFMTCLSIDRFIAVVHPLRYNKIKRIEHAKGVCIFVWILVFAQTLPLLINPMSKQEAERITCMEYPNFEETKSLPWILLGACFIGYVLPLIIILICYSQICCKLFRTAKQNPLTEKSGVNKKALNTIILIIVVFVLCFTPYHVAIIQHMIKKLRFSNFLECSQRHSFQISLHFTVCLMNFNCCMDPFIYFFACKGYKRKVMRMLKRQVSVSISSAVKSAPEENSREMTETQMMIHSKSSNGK

[4] = molecular target: RNA-editing ligase 1, mitochondrial (Trypanosoma brucei brucei, UniProt P86926); assay: inhibition of trypanosome RNA editing ligase – biochemical, fluorescence, Trypanosoma brucei, dose response (AID 1117295); assay type: functional
RNA-editing ligase 1, mitochondrial, sequence (P86926 whole entry): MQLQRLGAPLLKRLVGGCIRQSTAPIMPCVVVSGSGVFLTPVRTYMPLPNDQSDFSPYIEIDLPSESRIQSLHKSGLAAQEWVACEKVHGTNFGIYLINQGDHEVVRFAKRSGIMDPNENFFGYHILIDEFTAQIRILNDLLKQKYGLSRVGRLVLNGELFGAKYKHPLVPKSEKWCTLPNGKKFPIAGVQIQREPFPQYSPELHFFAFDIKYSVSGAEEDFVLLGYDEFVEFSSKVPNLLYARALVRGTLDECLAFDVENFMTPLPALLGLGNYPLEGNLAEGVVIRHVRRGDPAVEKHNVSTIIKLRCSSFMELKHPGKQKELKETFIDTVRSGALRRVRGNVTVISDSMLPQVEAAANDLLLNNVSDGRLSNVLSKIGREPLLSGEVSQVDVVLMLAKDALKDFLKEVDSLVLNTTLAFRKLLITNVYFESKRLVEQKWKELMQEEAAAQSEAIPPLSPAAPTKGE

| IC50 [3] | Structure (SMILES) | AC50 [1] | AC50 [2] | IC50 [4] |
| --- | --- | --- | --- | --- |
| – | CO[C@@H]1CN(C)C(=O)c2ccc(NC(=O)Nc3cccc(Cl)c3)cc2OC[C@@H](C)NC[C@H]1C | 5.07 µM (active) | 30.3 µM (active) | – |
| 0.0064 µM (active) | Cc1cc(C)cc(CN2CCN(C(=O)/C=C/c3ccc(Br)cc3)CC2)c1 | – | – | – |
| – | N#C[C@H]1[C@@H](c2ccc(C#CC3CCCC3)cc2)[C@@H](CO)N1S(=O)(=O)c1ccccc1 | 3.62 µM (active) | 24.8 µM (active) | – |
| > 1 µM (inactive) | O=C(c1ccc(Br)cc1)N1CCN(C(=O)c2ccccc2Cl)CC1 | – | – | – |
| – | Cc1cc(O)c2c(c1)C(=O)[C@@]13C(=C(O)[C@H]4C(O)[C@@H]1[C@H]1C(O)[C@@H]3C(O)=C3C(=O)c5c(O)cc(C)cc5C(=O)[C@@]314)C2=O (some centres not stated) | – | – | 4.1 µM (active) |
